Data set [1] concerns Mycobacterium tuberculosis. As to the kind of experiment: Anti-tuberculosis activity against Mycobacterium tuberculosis H37Rv assessed as inhibition of microbial growth at 6.25 ug/ml by MABA method. In kind it is functional. For orientation: The colour change of resazurin is a common sign of viable cells or microbes.
Data set [2] has as its system Mycobacterium tuberculosis. As to the kind of experiment: Anti-tuberculosis activity against Mycobacterium tuberculosis H37Rv assessed as inhibition of microbial growth at 3.125 ug/ml by MABA method. In kind it is functional.
Another data set has as its system L929. As to the kind of experiment: Cytotoxicity against mouse L929 cells assessed as reduction cell viability after 5 days by MTT assay. In kind it is cell-based. The following applies: l929, 120 h. In general terms: Formazan colour is commonly taken as a measure of viable cells.
Data set [3] deals with Mycobacterium tuberculosis. Description: Anti-tuberculosis activity against Mycobacterium tuberculosis H37Rv assessed as inhibition of microbial growth by MABA method. The class given is functional, organism-based.
The subject of data set [4] is Mycobacterium tuberculosis. Description: Anti-tuberculosis activity against Mycobacterium tuberculosis H37Rv assessed as inhibition of microbial growth at 1.56 ug/ml by MABA method. In kind it is functional.

Each structure is given as a SMILES string. A value given as a limit tells only on which side of the number the result lay.

Take `COC(=O)c1ccc2ccccc2n1`: in data set [1], the inhibition at 6.25 µg/mL was at least 90%.

Consider `NNC(=O)c1cc(C23CC4CC(CC(C4)C2)C3)c2ccccc2n1`, for which the inhibition at 6.25 µg/mL in data set [1] came out at 99%. For the same molecule, the inhibition at 3.125 µg/mL in data set [2] worked out at 99%. In addition, the Activity with L929 was above 200 µg/mL. Also, in data set [3], the IC50 is 0.389 µM and the MIC90 is 3.12 µg/mL. Further, the inhibition at 1.56 µg/mL in data set [4] stood at 80%.

In the case of `CCCCC(O)c1cc(C23CC4CC(CC(C4)C2)C3)c2ccccc2n1` (centres undefined), the inhibition at 6.25 µg/mL in data set [1] is 91%. Further, in the data set with L929, the Activity was above 200 µg/mL. In data set [3], the IC50 is 2.19 µM and the MIC90 was 6.25 µg/mL.

Consider `NNC(=O)c1cc(CC2CC3CCC2C3)c2ccccc2n1` (centres undefined), for which, in data set [1], the inhibition at 6.25 µg/mL was found to be 92%. In the data set on L929, the Activity was above 200 µg/mL. Besides, in data set [3], the IC50 was 1.95 µM and the MIC90 was 6.25 µg/mL.

For `CC1CCCCC1c1cc(C(=O)NN)nc2ccccc12` (centres undefined), the inhibition at 6.25 µg/mL in data set [1] came to 99%. For the same molecule, the inhibition at 3.125 µg/mL in data set [2] was 99%. The Activity in the data set on L929 is above 200 µg/mL. In addition, in data set [3], the IC50 was 0.457 µM and the MIC90 was found to be 3.12 µg/mL. Besides, the inhibition at 1.56 µg/mL in data set [4] came out at 77%.

Consider `CC(C)(C)C1CCC(c2cc(C(=O)NN)nc3ccccc23)CC1` (centres undefined), for which, in data set [1], the inhibition at 6.25 µg/mL came to 99%. Moreover, the inhibition at 3.125 µg/mL in data set [2] is 99%. The Activity in the data set with L929 is above 200 µg/mL. In addition, in data set [3], the IC50 is 0.347 µM and the MIC90 turned out to be 3.12 µg/mL. In addition, the inhibition at 1.56 µg/mL in data set [4] was found to be 82%.

In the case of `CC1CCC(c2cc(C(=O)NN)nc3ccccc23)CC1` (centres undefined), the inhibition at 6.25 µg/mL in data set [1] was 84%. The Activity in the data set with L929 is above 200 µg/mL. Moreover, in data set [3], the IC50 was 3.55 µM and the MIC90 is 6.25 µg/mL.

As to `NNC(=O)c1cc(C2CCC(C(F)(F)F)CC2)c2ccccc2n1` (centres undefined), the inhibition at 6.25 µg/mL in data set [1] was determined as 89%. Further, in the data set on L929, the Activity is above 200 µg/mL. Moreover, in data set [3], the IC50 is 2.75 µM and the MIC90 is 6.25 µg/mL.

As for `COC1CCCC(c2cc(C(=O)NN)nc3ccccc23)C1` (centres undefined), in data set [1], the inhibition at 6.25 µg/mL came out at 90%. The Activity in the data set with L929 is above 200 µg/mL. Besides, in data set [3], the IC50 was 2.95 µM and the MIC90 was found to be 6.25 µg/mL.

As for `CO[C@H]1CC[C@H](c2cc(C(=O)NN)nc3ccccc32)CC1`, the inhibition at 6.25 µg/mL in data set [1] is 32%. Also, in the data set with L929, the Activity is above 200 µg/mL. In data set [3], the IC50 is 32.4 µM and the MIC90 came to 6.25 µg/mL.

For `CO[C@H]1CC[C@@H](c2cc(C(=O)NN)nc3ccccc32)CC1`, the inhibition at 6.25 µg/mL in data set [1] stood at 90%. The Activity in the data set with L929 was above 200 µg/mL. Also, in data set [3], the IC50 was 2.34 µM and the MIC90 came out at 6.25 µg/mL.

On to `C=CCC(O)c1cc(C23CC4CC(CC(C4)C2)C3)c2ccccc2n1` (centres undefined), for which, in data set [1], the inhibition at 6.25 µg/mL was determined as 44%. The Activity with L929 is above 200 µg/mL. Further, in data set [3], the IC50 was 22.9 µM and the MIC90 was found to be 6.25 µg/mL.

As to `OC(c1ccccc1)c1cc(C23CC4CC(CC(C4)C2)C3)c2ccccc2n1` (centres undefined), in data set [1], the inhibition at 6.25 µg/mL turned out to be 86%. The Activity in the data set with L929 was above 200 µg/mL. In data set [3], the IC50 is 3.09 µM and the MIC90 was 6.25 µg/mL.

As for `COc1ccc(C(O)c2cc(C34CC5CC(CC(C5)C3)C4)c3ccccc3n2)cc1` (centres undefined), in data set [1], the inhibition at 6.25 µg/mL came out at 47%. Also, the Activity in the data set on L929 was above 200 µg/mL. For the same molecule, in data set [3], the 50% inhibitory concentration (IC50) is 83.2 µM and the MIC90 amounted to 6.25 µg/mL.

For the molecule `Cc1ccc(C(O)c2cc(C34CC5CC(CC(C5)C3)C4)c3ccccc3n2)cc1` (centres undefined), in data set [1], the inhibition at 6.25 µg/mL was 76%. Also, in the data set with L929, the Activity was above 200 µg/mL. Further, in data set [3], the IC50 is 5.01 µM and the MIC90 is 6.25 µg/mL.

As to `OC(c1ccc(F)cc1)c1cc(C23CC4CC(CC(C4)C2)C3)c2ccccc2n1` (centres undefined), the inhibition at 6.25 µg/mL in data set [1] amounted to 99%. Moreover, the inhibition at 3.125 µg/mL in data set [2] is 99%. Moreover, the Activity with L929 was above 200 µg/mL. Besides, in data set [3], the concentration for half-maximal inhibition (IC50) is 0.316 µM and the MIC90 is 3.12 µg/mL. Besides, the inhibition at 1.56 µg/mL in data set [4] is 69%.

Consider `CN(C)c1ccc(C(O)c2cc(C34CC5CC(CC(C5)C3)C4)c3ccccc3n2)cc1` (centres undefined), for which the inhibition at 6.25 µg/mL in data set [1] is 4%. For the same molecule, in the data set with L929, the Activity is above 200 µg/mL. Besides, in data set [3], the IC50 is 331 µM and the MIC90 turned out to be 6.25 µg/mL.

Consider `CCC(O)c1cc(C23CC4CC(CC(C4)C2)C3)c2ccccc2n1` (centres undefined), for which, in data set [1], the inhibition at 6.25 µg/mL was 73%. Further, in the data set on L929, the Activity was above 200 µg/mL. In addition, in data set [3], the half-inhibitory concentration (IC50) is 6.92 µM and the MIC90 came out at 6.25 µg/mL.

Take `CCCC(O)c1cc(C23CC4CC(CC(C4)C2)C3)c2ccccc2n1` (centres undefined): the inhibition at 6.25 µg/mL in data set [1] came out at 86%. Further, the Activity in the data set on L929 is above 200 µg/mL. Moreover, in data set [3], the IC50 was 4.47 µM and the MIC90 turned out to be 6.25 µg/mL.

Turning to `OC(c1cc(C23CC4CC(CC(C4)C2)C3)c2ccccc2n1)c1cccc2ccccc12` (centres undefined), in data set [1], the inhibition at 6.25 µg/mL amounted to 9%. Also, the Activity with L929 was above 200 µg/mL. For the same molecule, in data set [3], the half-maximal inhibitory concentration (IC50) was 182 µM and the MIC90 came to 6.25 µg/mL.

For the molecule `O=C(c1cc(C23CC4CC(CC(C4)C2)C3)c2ccccc2c1)N1CCNCC1`, in data set [1], the inhibition at 6.25 µg/mL came out at 82%. Further, in the data set on L929, the Activity was above 200 µg/mL. For the same molecule, in data set [3], the 50% inhibitory concentration (IC50) is 3.09 µM and the MIC90 came to 6.25 µg/mL.

For `O=C(NC1CCN(Cc2ccccc2)CC1)c1cc(C23CC4CC(CC(C4)C2)C3)c2ccccc2c1`, the inhibition at 6.25 µg/mL in data set [1] is 90%. The Activity in the data set on L929 is above 200 µg/mL. Further, in data set [3], the half-maximal inhibitory concentration (IC50) is 1.51 µM and the MIC90 amounted to 6.25 µg/mL.

Take `CN1CCN(C(=O)c2cc(C34CC5CC(CC(C5)C3)C4)c3ccccc3c2)CC1`: the inhibition at 6.25 µg/mL in data set [1] came out at 87%. Moreover, the Activity in the data set with L929 was above 200 µg/mL. Besides, in data set [3], the concentration for half-maximal inhibition (IC50) is 5.89 µM and the MIC90 was determined as 6.25 µg/mL.

With `O=C(c1cc(C23CC4CC(CC(C4)C2)C3)c2ccccc2c1)N1CCCCC1`, the inhibition at 6.25 µg/mL in data set [1] was found to be 9%. Moreover, the Activity in the data set on L929 was above 200 µg/mL. For the same molecule, in data set [3], the IC50 is 120 µM and the MIC90 was determined as 6.25 µg/mL.

On to `O=C(c1cc(C23CC4CC(CC(C4)C2)C3)c2ccccc2c1)N1CCN(c2ccccn2)CC1`, for which the inhibition at 6.25 µg/mL in data set [1] is 8%. The Activity with L929 is above 200 µg/mL. Besides, in data set [3], the IC50 is 63.1 µM and the MIC90 is 6.25 µg/mL.

As for `O=C(c1cc(C23CC4CC(CC(C4)C2)C3)c2ccccc2c1)N1CCCC1`, the inhibition at 6.25 µg/mL in data set [1] was found to be 53%. For the same molecule, in the data set on L929, the Activity is above 200 µg/mL. In addition, in data set [3], the half-inhibitory concentration (IC50) is 13.2 µM and the MIC90 came out at 6.25 µg/mL.

Turning to `O=C(c1cc(C23CC4CC(CC(C4)C2)C3)c2ccccc2c1)N1CCOCC1`, the inhibition at 6.25 µg/mL in data set [1] came to 14%. Further, in the data set with L929, the Activity is above 200 µg/mL. Moreover, in data set [3], the IC50 is 110 µM and the MIC90 was found to be 6.25 µg/mL.

In the case of `O=C(c1cc(C23CC4CC(CC(C4)C2)C3)c2ccccc2c1)N1CCN(c2ccccc2)CC1`, the inhibition at 6.25 µg/mL in data set [1] was determined as 90%. Moreover, the Activity in the data set with L929 was above 200 µg/mL. Further, in data set [3], the IC50 is 0.871 µM and the MIC90 was determined as 6.25 µg/mL.

On to `O=C(NO)c1cc(C23CC4CC(CC(C4)C2)C3)c2ccccc2c1`, for which the inhibition at 6.25 µg/mL in data set [1] was found to be 91%. For the same molecule, in the data set with L929, the Activity was above 200 µg/mL. Moreover, in data set [3], the IC50 was 1.17 µM and the MIC90 worked out at 6.25 µg/mL.

As to `COC(=O)c1cc(C23CC4CC(CC(C4)C2)C3)c2ccccc2n1`, in data set [1], the inhibition at 6.25 µg/mL was at least 90%.

For the molecule `NNC(=O)c1ccncc1` [ISONIAZID], the MIC99 in data set [3] turned out to be 0.1 µg/mL.

Turning to `CO[C@H]1/C=C/O[C@@]2(C)Oc3c(C)c(O)c4c(O)c(c(/C=N/N5CCN(C)CC5)c(O)c4c3C2=O)NC(=O)/C(C)=C\C=C\[C@H](C)[C@H](O)[C@@H](C)[C@@H](O)[C@@H](C)[C@H](OC(C)=O)[C@@H]1C` [RIFAMPIN], the MIC99 in data set [3] amounted to 0.2 µg/mL.

Broadly, the inhibition is the change of the read-out against control, counted positive when it falls. As a reminder, the IC50 is the midpoint of a concentration-inhibition curve. As a reminder, the MIC90 is the lowest concentration that inhibits either 90% of growth or 90% of the strains tested, depending on the study. What is called MIC99 is an inhibitory concentration at the 99% level, which refers to growth in some studies and to a panel of isolates in others.

Source of the values: ChEMBL document CHEMBL3407381, “Synthesis, biological evaluation and 3D QSAR study of 2,4-disubstituted quinolines as anti-tuberculosis agents” (Eur J Med Chem, 2015).
